The target in this assay is T1, met (HGF receptor) in human gastric cancer cells MKN45 (Homo sapiens, UniProt P08581).
T1 construct: endogenous in cells; host or cells: MKN45 human gastric cancer cells
T1 sequence (P08581 25-1390): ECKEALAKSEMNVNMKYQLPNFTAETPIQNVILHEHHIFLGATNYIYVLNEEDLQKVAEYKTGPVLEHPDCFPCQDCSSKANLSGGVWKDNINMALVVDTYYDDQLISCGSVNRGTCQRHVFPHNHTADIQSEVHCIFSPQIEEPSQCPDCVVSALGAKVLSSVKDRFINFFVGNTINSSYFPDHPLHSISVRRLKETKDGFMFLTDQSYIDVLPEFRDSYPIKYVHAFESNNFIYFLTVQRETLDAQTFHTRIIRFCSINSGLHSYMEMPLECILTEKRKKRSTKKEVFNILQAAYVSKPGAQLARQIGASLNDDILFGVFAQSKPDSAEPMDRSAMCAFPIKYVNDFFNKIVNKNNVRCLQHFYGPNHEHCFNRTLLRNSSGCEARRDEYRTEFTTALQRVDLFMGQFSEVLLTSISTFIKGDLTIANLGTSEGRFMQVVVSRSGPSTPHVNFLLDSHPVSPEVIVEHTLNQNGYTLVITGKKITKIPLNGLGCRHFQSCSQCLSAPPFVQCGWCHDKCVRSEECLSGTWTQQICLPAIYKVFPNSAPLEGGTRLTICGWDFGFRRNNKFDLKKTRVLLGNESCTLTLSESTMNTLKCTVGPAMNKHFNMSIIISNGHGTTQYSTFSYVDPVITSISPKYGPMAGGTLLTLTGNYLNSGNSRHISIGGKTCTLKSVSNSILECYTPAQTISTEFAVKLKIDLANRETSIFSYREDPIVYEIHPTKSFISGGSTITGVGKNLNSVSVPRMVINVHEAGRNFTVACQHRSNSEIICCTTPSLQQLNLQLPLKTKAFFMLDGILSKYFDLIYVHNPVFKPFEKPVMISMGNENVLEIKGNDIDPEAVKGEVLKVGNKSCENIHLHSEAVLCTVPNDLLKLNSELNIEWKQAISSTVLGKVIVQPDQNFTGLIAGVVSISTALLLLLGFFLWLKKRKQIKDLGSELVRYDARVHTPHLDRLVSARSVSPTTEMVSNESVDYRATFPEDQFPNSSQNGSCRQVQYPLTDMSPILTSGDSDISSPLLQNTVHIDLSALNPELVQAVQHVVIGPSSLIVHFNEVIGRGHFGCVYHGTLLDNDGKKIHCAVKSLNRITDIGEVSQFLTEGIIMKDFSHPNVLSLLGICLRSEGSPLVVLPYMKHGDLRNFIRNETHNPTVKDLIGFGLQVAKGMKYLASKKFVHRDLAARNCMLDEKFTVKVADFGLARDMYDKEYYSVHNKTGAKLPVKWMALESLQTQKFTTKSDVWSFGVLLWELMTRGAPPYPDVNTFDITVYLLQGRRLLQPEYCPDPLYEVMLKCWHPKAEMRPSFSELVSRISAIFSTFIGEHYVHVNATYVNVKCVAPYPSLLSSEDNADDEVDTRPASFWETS
The experiment in a line: Inhibitory activity against met-autophosphorylation using ELISA method (2), MKN45 cells, HGF-independent. The format is cell-based. The protocol: Cells were cultured with RPMI medium containing 0.1% fetal calf serum in 96-well flat-bottom plate in an amount of 3×10^4 per well, and were incubated at 37° C. overnight. The medium was then replaced by a fresh RPMI medium containing 0.1% fetal calf serum. A solution of the test compound in dimethyl sulfoxide was added to each well, and the incuvation was continued at 37° C. for additional one hr. The medium was removed, the cells were washed with phosphate buffered saline (pH 7.4), and 50 μl of a lysis buffer (20 mM HEPES (pH 7.4), 150 mM NaCl, 0.2% Triton X-100, 10% glycerol, 5 mM sodium orthovanadylate, 5 mM disodium ethylenediaminetetraacetate, and 2 mM Na4P2O7) was then added thereto. The mixture was shaken at 4° C. for 2 hr to prepare a cell extract.
Separately, phosphate buffered saline (50 μl, pH 7.4) containing 5 μg/ml of anti-phospho-tyrosine antibody (PY20; purchased from Transduction Laboratories) was added to a microplate for ELISA (Maxisorp; purchased from NUNC), followed by gentle agitation at 4° C. overnight to coat the surface of the wells with the antibody. After washing of the plate, 300 μl of a blocking solution was added, followed by gentle agitation at room temperature for 2 hr to perform blocking. After washing, the whole quantity of the cell extract was transferred to the wells, and the plate was then allowed to stand at 4° C. overnight. After washing, an anti-HGF receptor antibody (h-Met (C-12), purchased from Santa Cruz Biotechnology) was allowed to react at room temperature for one hr, and, after washing, a peroxidase-labeled anti-rabbit Ig antibody (purchased from Amersham) was allowed to react at room temperature for one hr. After washing, a chromophoric substrate for peroxidase (purchased from Sumitomo Bakelite Co., Ltd.) was added thereto to initiate a reaction. After a suitable level of color development, a reaction termination solution was added to stop the reaction, and the absorbance at 450 nm was measured with a microplate reader.
In turn, `COc1cc2nccc(Oc3ccc(NC(=S)NC(=O)Cc4ccsc4)cc3F)c2cc1OC` [Example 85, 1-[4-(6,7-dimethoxyquinolin-4-yloxy)-3-fluoro-phenyl]-3-(2-thiophen-3-ylacetyl)thiourea] showed a half-maximal inhibitory concentration (IC50) of 48.8 nM.
In the case of `COc1cc2nccc(Oc3ccc(NC(=S)NC(=O)Cc4ccccc4C)cc3)c2cc1OC` [Example 79, 1-[4-(6,7-dimethoxyquinolin-4-yloxy)phenyl]-3-(2-o-tolylacetyl)thiourea] it was 145 nM.
To `COc1cc2c(Oc3ccc(NC(=O)NC(=O)Cc4ccccc4)cc3F)ccnc2cc1OCCCN1CCC(CO)CC1` [Example 308, 1-(3-Fluoro-4-{7-[3-(4-hydroxymethyl-piperidin-1-yl)-propoxy]-6-methoxy-quinolin-4-yloxy}-phenyl)-3-phenylacetyl-urea] belongs 21.4 nM.
The compound `COc1cc2nccc(Oc3ccc(NC(=S)NC(=O)Cc4cc(F)ccc4F)c(F)c3)c2cc1OC` [Example 96, 1-[2-(2,5-difluorophenyl)acetyl]-3-[4-(6,7-dimethoxyquinolin-4-yloxy)-2-fluorophenyl]thiourea] registered an IC50 of 171 nM.
In the case of `COc1cccc(CC(=O)NC(=S)Nc2ccc(Oc3ccnc4cc(OC)c(OC)cc34)cc2)c1` [Example 184, 1-[4-(6,7-dimethoxyquinolin-4-yloxy)phenyl]-3-[2-(3-methoxyphenyl)acetyl]thiourea] it was 268 nM; in that of `COc1cc2nccc(Oc3ccc(NC(=S)NC(=O)Cc4ccc(C)cc4)cc3F)c2cc1OC` [Example 190, 1-[4-(6,7-dimethoxyquinolin-4-yloxy)-3-fluorophenyl]-3-(2-p-tolylacetyl)thiourea], 224 nM.
Compound `COc1cc2nccc(Oc3ccc(NC(=S)NC(=O)CC4CCC(C)CC4)c(F)c3)c2cc1OC` (stereo not shown) [Example 191, 1-[4-(6,7-dimethoxyquinolin-4-yloxy)-2-fluorophenyl]-3-[2-(4-methyl-cyclohexyl)acetyl]thiourea] came in with an IC50 of 977 nM.
To `COc1cc2nccc(Oc3ccc(NC(=S)NC(=O)Cc4cccc(C)c4)c(F)c3)c2cc1OC` [Example 175, 1-[4-(6,7-dimethoxyquinolin-4-yloxy)-2-fluorophenyl]-3-(2-m-tolylacetyl)thiourea] belongs 955 nM; to `COc1cc2nccc(Oc3ccc(NC(=S)NC(=O)Cc4cccc(F)c4)c(F)c3)c2cc1OC` [Example 74, 1-[4-(6,7-dimethoxyquinolin-4-yloxy)-2-fluoro-phenyl]-3-[2-(3-fluorophenyl)acetyl]thiourea], 182 nM.
In the case of `COc1cc2nccc(Oc3ccc(NC(=S)NC(=O)CC4CCC(C)CC4)cc3F)c2cc1OC` (stereo not shown) [Example 192, 1-[4-(6,7-dimethoxyquinolin-4-yloxy)-3-fluorophenyl]-3-[2-(4-methyl-cyclohexyl)acetyl]thiourea] it was 687 nM.
In the case of `COc1cc2c(Oc3ccc(NC(=S)NC(=O)Cc4ccccc4)cc3F)ccnc2cc1OCCN1CCN(C)CC1` [Example 270, 1-(3-Fluoro-4-{6-methoxy-7-[2-(4-methyl-piperazin-1-yl)-ethoxy]-quinolin-4-yloxy}-phenyl)-3-phenylacetyl-thiourea] it was 26.7 nM; in that of `COc1cc2c(Oc3ccc(NC(=O)NC(=O)Cc4ccc(F)cc4)cc3F)ccnc2cc1OCCCCN1CCN(C)CC1` [Example 43, 1-(3-fluoro-4-{6-methoxy-7-[4-(4-methyl-piperazin-1-yl)-butoxy]quinolin-4-yloxy}phenyl)-3-[2-(4-fluorophenyl)acetyl]urea], 167 nM.
`COc1cc2c(Oc3ccc(NC(=S)NC(=O)Cc4ccccc4F)cc3F)ccnc2cc1OCCN1CCOCC1` [Example 278, 1-{3-Fluoro-4-[6-methoxy-7-(2-morpholin-4-yl-ethoxy)-quinolin-4-yloxy]-phenyl}-3-[2-(2-fluoro-phenyl)-acetyl]-thiourea] had a 50% inhibitory concentration (IC50) of 25.1 nM.
Regarding `COc1cc2nccc(Oc3ccc(NC(=O)NC(=O)Cc4cccc(F)c4)cc3F)c2cc1OC` [Example 37, 1-[4-(6,7-dimethoxyquinolin-4-yloxy)-3-fluoro-phenyl]-3-[2-(3-fluorophenyl)acetyl]urea], half-maximal inhibition (IC50) was put at 58.4 nM.
On to `COc1cc2nccc(Oc3ccc(NC(=O)C(C)C(=O)Nc4ccccc4)cc3)c2cc1OC` (stereo not shown) [Example 225, N-[4-(6,7-dimethoxyquinolin-4-yloxy)phenyl]-2-methyl-N′-phenylmalonamide], for which half-maximal inhibition (IC50) was put at 281 nM.
To `COc1cc2nccc(Oc3ccc(NC(=S)NC(=O)Cc4ccc(F)cc4F)cc3F)c2cc1OC` [Example 94, 1-[2-(2,4-difluorophenyl)acetyl]-3-[4-(6,7-dimethoxyquinolin-4-yloxy)-3-fluorophenyl]thiourea] belongs 30.7 nM; to `COc1cc2nccc(Oc3ccc(NC(=O)CC(=O)Nc4ccc(F)cc4F)cc3F)c2cc1OC` [Example 99, N-(2,4-difluorophenyl)-N′-[4-(6,7-dimethoxy-quinolin-4-yloxy)-3-fluorophenyl]malonamide], 25.6 nM; to `COc1cc2nccc(Oc3ccc(NC(=O)NC(=O)Nc4ccc(Cl)cn4)cc3)c2cc1OC` [Example 231, N-(5-chloro-2-pyridyl)-({[4-(6,7-dimethoxy-quinolin-4-yloxy)anilino]carbonyl}amino)methanamide], 329 nM.
In the case of `COc1cc2c(Oc3ccc(NC(=O)NC(=O)Cc4ccccc4)cc3F)ccnc2cc1OCCCN1CCCCC1` [Example 52, 1-{3-fluoro-4-[6-methoxy-7-(3-piperidin-1-yl-propoxy)quinolin-4-yloxy]phenyl}-3-phenylacetylurea] it was 171 nM; in that of `COc1cc2nccc(Oc3ccc(NC(=S)NC(=O)C4C[C@@H]4c4ccccc4)cc3)c2cc1OC` (stereo in doubt) [Example 150, 1-[4-(6,7-dimethoxyquinolin-4-yloxy)phenyl]-3-(2-phenylcyclopropanecarbonyl)thiourea], 1280 nM; in that of `COc1cc2c(Oc3ccc(NC(=O)NC(=O)Cc4ccccc4)cc3F)ccnc2cc1OCCN1CCCCC1` [Example 13, 1-{3-fluoro-4-[6-methoxy-7-(2-piperidin-1-yl-ethoxy)quinolin-4-yloxy]phenyl}-3-phenylacetylurea], 141 nM.
Consider `COc1cc2nccc(Oc3ccc(NC(=O)NC(=O)Cc4ccsc4)c(F)c3)c2cc1OC` [Example 19, 1-[4-(6,7-dimethoxyquinolin-4-yloxy)-2-fluoro-phenyl]-3-(2-thiophen-3-ylacetyl)urea], for which the IC50 turned out to be 104 nM.
In the case of `COc1cc2nccc(Oc3ccc(NC(=S)NC(=O)Cc4ccccc4[N+](=O)[O-])cc3Cl)c2cc1OC` [Example 156, 1-[3-chloro-4-(6,7-dimethoxyquinolin-4-yloxy)phenyl]-3-[2-(2-nitrophenyl)acetyl]thiourea] it was 373 nM; in that of `COc1cc2nccc(Oc3ccc(NC(=O)NC(=O)Cc4ccccc4)cc3Cl)c2cc1OC` [Example 18, 1-[3-chloro-4-(6,7-dimethoxyquinolin-4-yloxy)-phenyl]-3-phenylacetylurea], 150 nM.
In the case of `COc1cc2nccc(Oc3ccc(NC(=S)NC(=O)Cc4ccc(F)c(F)c4)c(F)c3)c2cc1OC` [Example 198, 1-[2-(3,4-difluorophenyl)acetyl]-3-[4-(6,7-dimethoxyquinolin-4-yloxy)-2-fluorophenyl]thiourea] it was 294 nM; in that of `COc1cc2c(Oc3ccc(NC(=O)NC(=O)Cc4ccccc4)cc3F)ccnc2cc1OCC(O)CN1CCOCC1` (stereo not shown) [Example 337, 1-{3-Fluoro-4-[7-(2-hydroxy-3-morpholin-1-yl-propoxy)-6-methoxy-quinolin-4-yloxy]-phenyl}-3-(2-phenyl-acetyl)-urea], 22 nM; in that of `COc1cccc(CC(=O)NC(=S)Nc2ccc(Oc3ccnc4cc(OC)c(OC)cc34)c(F)c2)c1` [Example 181, 1-[4-(6,7-dimethoxyquinolin-4-yloxy)-3-fluorophenyl]-3-[2-(3-methoxyphenyl)acetyl]thiourea], 243 nM.
In the case of `COc1cc2c(Oc3ccc(NC(=S)NC(=O)Cc4cccc(F)c4)cc3F)ccnc2cc1OCCCN1CCOCC1` [Example 289] it was 23.8 nM; in that of `COc1cc2nccc(Oc3ccc(NC(=S)NC(=O)Cc4cccc(Cl)c4)c(F)c3)c2cc1OC` [Example 172, 1-[2-(3-chlorophenyl)acetyl]-3-[4-(6,7-dimethoxyquinolin-4-yloxy)-2-fluorophenyl]thiourea], 423 nM.
`COc1cc2nccc(Oc3ccc(NC(=O)NC(=O)Nc4ccc(Cl)cc4)cc3)c2cc1OC` [Example 249, N-(4-chlorophenyl)-({[4-(6,7-dimethoxy-quinolin-4-yloxy)anilino]carbonyl}amino)methanamide]: half-maximal inhibition (IC50) was put at 526 nM.
In the case of `COc1cc2nccc(Oc3ccc(NC(=O)NC(=O)CC4C5CCC4CC5)c(F)c3)c2cc1OC` (stereo not shown) [Example 126, 1-(2-bicyclo[2.2.1]hepto-7-ylacetyl)-3-[4-(6,7-dimethoxyquinolin-4-yloxy)-2-fluorophenyl]urea] it was 330 nM.

The values are drawn from US8324245B2, “Quinoline derivative and quinazoline derivative inhibiting self-phosphorylation of hepatocytus proliferator receptor, and medicinal composition containing the same” (Kyowa Hakko Kirin Co., Ltd., priority 2001, dated 2012).
